# From US20100093706A1, “MULTIMEDIATOR TRANSPORTER INHIBITORS FOR USE IN TREATMENT OF CENTRAL NERVOUS SYSTEM DISORDERS” (priority 2006, published 2010)
# Legend:
# [1] = biological target: NET (norepinephrine transporter or SLC6A2) (Homo sapiens, UniProt P23975); assay: cell-based; settings: own compounds tested as racemic mixtures of enriched diastereomers
# [2] = biological target: Histamine H1 receptor (Homo sapiens, UniProt P35367); assay: in vitro selectivity panel, Histamine H1 receptor; assay type: binding
# Description: (§1) The in vitro selectivity profile of two representative subject compounds, (3) and (1), are also tested against a panel of other receptors, including the M1 receptor, Histamine H1 receptor, sigma-1 (σ1) receptor, β1-adrenergic receptor, and dopamine D2 receptor. Representative results are listed below in Table III: […]
# [3] = biological target: sigma-1 (σ1) receptor (Homo sapiens, UniProt Q99720); assay: in vitro selectivity panel, sigma-1 receptor; assay type: binding
# Description: as §1
# [4] = biological target: T1, M1 receptor (Homo sapiens, UniProt P11229); assay: in vitro selectivity panel, M1 receptor; assay type: binding
# T1 sequence (P11229 1-460): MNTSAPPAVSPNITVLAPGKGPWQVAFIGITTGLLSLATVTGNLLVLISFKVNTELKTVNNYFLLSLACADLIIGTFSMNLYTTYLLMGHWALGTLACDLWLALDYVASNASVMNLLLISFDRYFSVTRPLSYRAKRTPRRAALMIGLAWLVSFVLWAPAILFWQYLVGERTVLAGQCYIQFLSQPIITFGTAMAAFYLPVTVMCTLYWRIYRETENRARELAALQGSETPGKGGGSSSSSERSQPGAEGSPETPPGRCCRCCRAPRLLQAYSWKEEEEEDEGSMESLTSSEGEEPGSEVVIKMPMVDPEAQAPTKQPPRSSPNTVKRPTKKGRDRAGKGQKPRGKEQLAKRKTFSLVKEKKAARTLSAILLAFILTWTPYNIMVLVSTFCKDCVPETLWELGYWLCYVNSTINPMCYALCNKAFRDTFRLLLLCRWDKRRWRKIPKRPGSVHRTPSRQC
# Description: as §1
# [5] = system: rat; assay: acute single-dose toxicology in rat; assay type: in vivo
# Description: An in vivo evaluation was carried out to determine the maximum tolerated dose of numerous test compounds in rat. The compounds were administered i.v., and the animals were then observed for 72 hours.
# Briefly, experimental rats, in groups of 5 animals, were administered with various doses of respective inhibitors (e.g. 30, 90, 120, and 200 mg/kg), and the observed toxicological effects were recorded.
# [6] = biological target: T2, DAT (h) (Homo sapiens, UniProt Q01959); assay: cell-based; assay type: cell-based; settings: human; nM; read-out: DAT (h) in vitro functional uptake
# T2 construct: expressed in transfected cells
# Description: (§2) Functional activity of the compounds was determined in vitro in cellular assays using recombinant human cell lines.
# [7] = biological target: T3, NET (h) (Homo sapiens, UniProt P23975); assay: cell-based; assay type: cell-based; settings: human; nM; read-out: NET (h) in vitro functional uptake
# T3 construct: expressed in transfected cells; host or cells: MDCK
# Description: as §2
# [8] = biological target: DAT (r) (Rattus norvegicus, UniProt P23977); assay: in vitro functional uptake, rat DAT; assay type: cell-based
# [9] = biological target: 5-HT (Homo sapiens, UniProt P31645); assay: cell-based; settings: own compounds tested as racemic mixtures of enriched diastereomers
# [10] = in vivo; settings: rat
# [11] = system: Sprague-Dawley rats; assay: 7 day multidose oral dosing toxicology study; assay type: in vivo, rat
# Excerpt: The representative results are listed below in Table VI.
# [12] = biological target: dopamine D2 receptor (Homo sapiens, UniProt P14416); assay: in vitro selectivity panel, dopamine D2 receptor; assay type: binding
# Description: as §1
# [13] = biological target: β1-adrenergic receptor (Homo sapiens, UniProt P08588); assay: in vitro selectivity panel, β1-adrenergic receptor; assay type: binding
# Description: as §1
# Chain of β1-adrenergic receptor (P08588 whole entry): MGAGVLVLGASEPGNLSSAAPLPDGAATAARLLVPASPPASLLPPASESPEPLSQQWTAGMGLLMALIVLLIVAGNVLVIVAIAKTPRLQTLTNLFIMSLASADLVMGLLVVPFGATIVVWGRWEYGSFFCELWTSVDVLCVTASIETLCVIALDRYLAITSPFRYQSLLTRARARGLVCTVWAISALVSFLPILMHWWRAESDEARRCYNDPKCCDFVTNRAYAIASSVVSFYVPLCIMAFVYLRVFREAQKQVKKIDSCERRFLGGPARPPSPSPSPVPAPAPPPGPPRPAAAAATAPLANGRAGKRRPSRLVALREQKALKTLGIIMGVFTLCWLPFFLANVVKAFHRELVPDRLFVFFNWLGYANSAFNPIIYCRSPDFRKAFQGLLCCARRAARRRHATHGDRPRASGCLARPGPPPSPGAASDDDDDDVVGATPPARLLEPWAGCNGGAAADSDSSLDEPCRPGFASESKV
# Chain of NET (norepinephrine transporter or SLC6A2) (P23975 whole entry): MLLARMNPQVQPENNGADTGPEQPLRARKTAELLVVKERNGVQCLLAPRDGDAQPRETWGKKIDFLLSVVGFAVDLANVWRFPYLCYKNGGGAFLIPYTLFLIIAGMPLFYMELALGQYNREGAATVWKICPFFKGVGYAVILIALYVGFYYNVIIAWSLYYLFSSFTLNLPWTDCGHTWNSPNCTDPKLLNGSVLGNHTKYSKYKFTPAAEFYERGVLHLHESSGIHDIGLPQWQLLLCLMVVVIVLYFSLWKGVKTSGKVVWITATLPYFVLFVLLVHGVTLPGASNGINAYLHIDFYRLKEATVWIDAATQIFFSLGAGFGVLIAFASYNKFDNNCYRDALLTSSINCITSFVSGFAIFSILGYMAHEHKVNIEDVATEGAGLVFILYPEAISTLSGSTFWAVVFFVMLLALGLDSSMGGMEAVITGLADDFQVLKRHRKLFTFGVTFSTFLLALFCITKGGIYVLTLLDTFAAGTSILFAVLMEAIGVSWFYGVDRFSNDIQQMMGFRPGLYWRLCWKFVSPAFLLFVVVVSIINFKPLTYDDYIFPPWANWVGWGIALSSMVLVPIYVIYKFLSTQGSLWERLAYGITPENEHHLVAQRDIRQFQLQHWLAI
# T3 sequence (P23975 whole entry): as above
# Chain of sigma-1 (σ1) receptor (Q99720 whole entry): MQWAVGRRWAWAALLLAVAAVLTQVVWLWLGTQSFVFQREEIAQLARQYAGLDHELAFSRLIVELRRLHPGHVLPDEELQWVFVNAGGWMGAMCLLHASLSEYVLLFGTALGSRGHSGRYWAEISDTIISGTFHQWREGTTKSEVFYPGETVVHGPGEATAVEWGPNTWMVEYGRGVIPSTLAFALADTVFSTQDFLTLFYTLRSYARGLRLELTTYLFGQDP
# T2 sequence (Q01959 whole entry): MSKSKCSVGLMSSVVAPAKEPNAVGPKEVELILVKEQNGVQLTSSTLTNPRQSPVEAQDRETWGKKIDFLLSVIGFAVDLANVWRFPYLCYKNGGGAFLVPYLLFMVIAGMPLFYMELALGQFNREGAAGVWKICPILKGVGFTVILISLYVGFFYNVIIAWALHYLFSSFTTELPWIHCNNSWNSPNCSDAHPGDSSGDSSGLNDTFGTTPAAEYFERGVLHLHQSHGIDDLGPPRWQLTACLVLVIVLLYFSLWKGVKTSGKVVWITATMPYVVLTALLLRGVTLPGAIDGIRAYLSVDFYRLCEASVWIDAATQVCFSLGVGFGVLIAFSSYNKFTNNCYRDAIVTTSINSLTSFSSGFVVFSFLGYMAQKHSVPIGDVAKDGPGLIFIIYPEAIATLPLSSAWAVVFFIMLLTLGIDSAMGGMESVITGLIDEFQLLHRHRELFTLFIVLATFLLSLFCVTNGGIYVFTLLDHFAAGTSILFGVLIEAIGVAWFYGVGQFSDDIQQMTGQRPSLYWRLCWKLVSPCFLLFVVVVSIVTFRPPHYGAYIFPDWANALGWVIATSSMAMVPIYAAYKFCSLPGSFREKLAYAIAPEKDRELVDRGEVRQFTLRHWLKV
# Chain of 5-HT (P31645 whole entry): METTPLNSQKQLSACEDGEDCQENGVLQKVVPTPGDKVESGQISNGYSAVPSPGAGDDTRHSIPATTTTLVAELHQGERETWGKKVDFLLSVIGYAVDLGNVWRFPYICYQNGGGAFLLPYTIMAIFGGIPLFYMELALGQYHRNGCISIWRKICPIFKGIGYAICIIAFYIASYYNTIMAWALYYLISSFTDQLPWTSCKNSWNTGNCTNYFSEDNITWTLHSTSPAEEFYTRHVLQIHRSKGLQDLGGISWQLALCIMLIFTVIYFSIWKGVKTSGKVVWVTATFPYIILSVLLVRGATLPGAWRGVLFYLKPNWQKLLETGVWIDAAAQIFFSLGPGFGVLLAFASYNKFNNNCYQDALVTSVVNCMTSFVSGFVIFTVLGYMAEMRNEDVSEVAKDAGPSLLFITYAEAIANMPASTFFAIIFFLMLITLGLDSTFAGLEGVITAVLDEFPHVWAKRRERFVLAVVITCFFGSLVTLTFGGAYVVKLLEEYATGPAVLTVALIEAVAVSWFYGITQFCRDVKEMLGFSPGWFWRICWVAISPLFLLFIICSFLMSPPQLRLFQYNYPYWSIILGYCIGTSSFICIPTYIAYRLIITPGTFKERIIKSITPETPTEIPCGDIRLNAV
# Chain of dopamine D2 receptor (P14416 whole entry): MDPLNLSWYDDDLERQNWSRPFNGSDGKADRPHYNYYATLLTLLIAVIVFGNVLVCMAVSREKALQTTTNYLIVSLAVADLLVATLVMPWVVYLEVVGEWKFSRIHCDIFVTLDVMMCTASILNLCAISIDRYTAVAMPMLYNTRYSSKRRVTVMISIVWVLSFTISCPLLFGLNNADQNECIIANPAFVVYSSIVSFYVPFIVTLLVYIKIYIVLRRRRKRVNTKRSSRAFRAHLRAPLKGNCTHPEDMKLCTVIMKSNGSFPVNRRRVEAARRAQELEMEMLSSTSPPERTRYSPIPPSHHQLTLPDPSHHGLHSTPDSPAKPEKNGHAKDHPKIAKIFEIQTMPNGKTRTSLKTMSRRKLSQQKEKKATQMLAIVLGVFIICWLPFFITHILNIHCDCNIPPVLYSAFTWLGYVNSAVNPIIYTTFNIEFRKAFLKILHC
# Chain of DAT (r) (P23977 whole entry): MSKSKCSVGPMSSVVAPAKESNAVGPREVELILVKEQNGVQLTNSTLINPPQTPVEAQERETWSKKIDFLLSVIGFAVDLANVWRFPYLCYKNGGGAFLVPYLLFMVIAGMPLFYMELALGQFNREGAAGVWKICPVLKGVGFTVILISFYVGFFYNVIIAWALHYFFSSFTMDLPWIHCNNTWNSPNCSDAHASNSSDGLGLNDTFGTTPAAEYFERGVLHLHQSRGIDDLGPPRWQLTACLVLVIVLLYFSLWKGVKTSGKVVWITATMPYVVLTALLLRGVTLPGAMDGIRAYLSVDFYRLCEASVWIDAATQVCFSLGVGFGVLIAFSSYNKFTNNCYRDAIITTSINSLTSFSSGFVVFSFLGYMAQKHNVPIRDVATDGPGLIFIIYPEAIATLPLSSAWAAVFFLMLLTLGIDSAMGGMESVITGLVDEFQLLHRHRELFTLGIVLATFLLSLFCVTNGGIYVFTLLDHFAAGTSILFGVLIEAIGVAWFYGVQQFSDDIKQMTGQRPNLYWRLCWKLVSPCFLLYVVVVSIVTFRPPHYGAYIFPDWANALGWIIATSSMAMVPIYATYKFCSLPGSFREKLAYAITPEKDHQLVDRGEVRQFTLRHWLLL
# Chain of Histamine H1 receptor (P35367 whole entry): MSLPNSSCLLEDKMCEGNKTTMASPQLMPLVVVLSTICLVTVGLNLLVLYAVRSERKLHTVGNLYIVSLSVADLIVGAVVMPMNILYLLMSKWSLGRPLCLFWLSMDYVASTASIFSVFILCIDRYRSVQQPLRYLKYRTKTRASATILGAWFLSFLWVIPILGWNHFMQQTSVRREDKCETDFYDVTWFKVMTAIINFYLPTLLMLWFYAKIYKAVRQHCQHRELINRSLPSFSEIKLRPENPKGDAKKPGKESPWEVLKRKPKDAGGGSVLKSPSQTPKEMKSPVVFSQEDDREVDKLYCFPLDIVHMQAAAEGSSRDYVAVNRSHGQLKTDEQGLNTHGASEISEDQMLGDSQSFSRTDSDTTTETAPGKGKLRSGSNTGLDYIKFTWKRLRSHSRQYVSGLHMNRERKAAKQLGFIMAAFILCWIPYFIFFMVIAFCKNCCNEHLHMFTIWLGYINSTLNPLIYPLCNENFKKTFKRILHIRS
smiles,measurement,setting,value
CC1CCN(CC2(c3ccc(Cl)cc3)CCC2)CC1COc1ccc(C(F)(F)F)cc1 (stereo not drawn) [(1)],IC50,[1],175 nM
same,Histamine H1 (nM)h,[2],5000 nM
same,Sigma σ1 (nM)h,[3],5000 nM
same,M1 (nM)h,[4],5000 nM
same,"acute single dose toxicology, observed symptoms","[5]; rat (n = 5), 200 mg/kg, i.v., observed 72 hours","decreased grip strength, and slight depression"
same,"acute single dose toxicology, observed symptoms","[5]; rat, doses below 120 mg/kg",no significant observed symptoms
same,EC50,[6],1 nM
same,EC50,[7],1000 nM
same,EC50,[8],80 nM
same,IC50,[9],1200 nM
same,Vd,[10],6 L/kg
same,half-life,[10]; iv,200 min
same,bioavailability,[10]; po,40%
same,"7 day multidose oral toxicology, symptoms","[11]; Sprague-Dawley rats n = 6 (3M/3F), oral 100 mg/kg/day, 100 mg/kg/day",did not display any significant symptoms
same,"7 day multidose oral toxicology, self-mutilation (number of animals)","[11]; n = 6, oral 200 mg/kg/day",1 self-mutilation
same,"7 day multidose oral toxicology, self-mutilation (number of animals)","[11]; n = 6, oral 400 mg/kg/day",3 self-mutilation
same,D2 (nM)h,[12],1000 nM
same,β1-adrenergic (nM)h,[13],5000 nM
